Source: ChEMBL document CHEMBL3739402, “Chromanones: selective and reversible monoamine oxidase B inhibitors with nanomolar potency” (Medchemcomm, 2015)

How the values were obtained:
[1] = molecular target: T1, Amine oxidase [flavin-containing] B (Homo sapiens, UniProt P27338); experiment: Inhibition of human MAO-B preincubated at twice the IC50 for 0 mins
T1 sequence (P27338 whole entry): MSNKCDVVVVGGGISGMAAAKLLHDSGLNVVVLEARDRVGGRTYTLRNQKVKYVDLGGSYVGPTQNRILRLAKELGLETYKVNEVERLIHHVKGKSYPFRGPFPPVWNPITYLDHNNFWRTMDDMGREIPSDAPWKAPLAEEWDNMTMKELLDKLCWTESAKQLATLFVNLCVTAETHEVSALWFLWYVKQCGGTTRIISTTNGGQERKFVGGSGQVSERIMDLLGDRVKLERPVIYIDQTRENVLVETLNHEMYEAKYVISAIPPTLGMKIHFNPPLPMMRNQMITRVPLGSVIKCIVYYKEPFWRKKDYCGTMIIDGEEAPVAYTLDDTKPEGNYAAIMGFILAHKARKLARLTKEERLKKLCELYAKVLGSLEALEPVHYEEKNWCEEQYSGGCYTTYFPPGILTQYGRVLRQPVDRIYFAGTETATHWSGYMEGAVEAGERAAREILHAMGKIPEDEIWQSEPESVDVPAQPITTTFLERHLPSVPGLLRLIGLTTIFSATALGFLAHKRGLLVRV

[2] = molecular target: T2, Amine oxidase [flavin-containing] A (Homo sapiens, UniProt P21397); experiment: Inhibition of human MAO-A using p-tyramine as substrate assessed as production of H2O2 from p-tyramine at 100 uM incubated for 15 mins by Amplex Red MAO assay; settings: 0.25 h
T2 sequence (P21397 whole entry): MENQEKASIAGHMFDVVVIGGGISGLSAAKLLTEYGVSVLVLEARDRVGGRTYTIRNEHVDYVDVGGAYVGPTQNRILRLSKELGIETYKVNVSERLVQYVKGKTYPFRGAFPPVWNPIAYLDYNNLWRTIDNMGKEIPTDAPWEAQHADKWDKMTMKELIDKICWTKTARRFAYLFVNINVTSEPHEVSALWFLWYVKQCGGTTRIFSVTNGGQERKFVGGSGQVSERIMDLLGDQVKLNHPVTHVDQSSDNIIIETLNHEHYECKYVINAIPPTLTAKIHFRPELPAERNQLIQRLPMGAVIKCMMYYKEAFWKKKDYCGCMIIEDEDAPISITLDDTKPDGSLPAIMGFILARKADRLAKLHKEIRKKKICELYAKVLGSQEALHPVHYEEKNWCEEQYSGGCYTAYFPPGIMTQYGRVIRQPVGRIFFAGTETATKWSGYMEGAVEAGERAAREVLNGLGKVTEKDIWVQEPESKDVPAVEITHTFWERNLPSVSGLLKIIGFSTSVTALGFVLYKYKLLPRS

[3] = molecular target: T1, Amine oxidase [flavin-containing] B; experiment: Time dependent inhibition of human MAO-B preincubated at twice the IC50 for 0 to 60 mins
[4] = test system: SH-SY5Y; experiment: Neurotoxicity against human SH-SY5Y cells assessed as cell viability at 3 to 50 uM after 48 hrs by MTT assay; format: toxicity, cell-based
[5] = molecular target: T1, Amine oxidase [flavin-containing] B; experiment: Inhibition of human MAO-B preincubated at twice the IC50 for 15 mins
[6] = molecular target: T1, Amine oxidase [flavin-containing] B; experiment: Inhibition of human MAO-B preincubated at twice the IC50 for 60 mins
[7] = molecular target: T1, Amine oxidase [flavin-containing] B; experiment: Reversible inhibition of human MAO-B preincubated at twice the IC50 for 0 to 60 mins
[8] = molecular target: T1, Amine oxidase [flavin-containing] B; experiment: Inhibition of human MAO-B preincubated at twice the IC50 for 30 mins
[9] = molecular target: T1, Amine oxidase [flavin-containing] B; experiment: Competitive inhibition of human MAO-B using 50 to 500 uM p-tyramine as substrate at 4.3 to 17.2 nM by Lineweaver-Burk plot analysis
[10] = molecular target: T1, Amine oxidase [flavin-containing] B; experiment: Inhibition of human MAO-B using p-tyramine as substrate assessed as production of H2O2 from p-tyramine incubated for 15 mins by Amplex Red MAO assay
[11] = organism: Homo sapiens; experiment: Selectivity index, ratio of IC50 for human MAO-A to IC50 for human MA)-B by Amplex Red MAO assay
[12] = molecular target: T2, Amine oxidase [flavin-containing] A; experiment: Inhibition of human MAO-A using p-tyramine as substrate assessed as production of H2O2 from p-tyramine incubated for 15 mins by Amplex Red MAO assay

| SMILES | inhibition at 100 µM [2] [%] | IC50 [10] [nM] | other results |
| --- | --- | --- | --- |
| Cc1ccc(COc2ccc3c(c2)OC(C)(C)CC3=O)cc1 | 25 | 113 | – |
| O=C1CCOc2cc(O)ccc21 | – | 78900 | Ratio IC50 [11]: 0.9; IC50 [12]: 71400 nM |
| CC1(C)CC(=O)c2ccc(OCc3ccccc3)cc2O1 | 25 | 97.5 | – |
| Cc1cccc(COc2ccc3c(c2)OC(C)(C)CC3=O)c1 | 18 | 98.3 | – |
| CC1(C)CC(=O)c2ccc(OCc3ccc(Cl)cc3)cc2O1 | 28 | – | – |
| CC1(C)CC(=O)c2ccc(OCc3ccccc3F)cc2O1 | 28 | 68.8 | – |
| CC1(C)CC(=O)c2ccc(OCc3ccc(C#N)cc3)cc2O1 | 23 | 69.5 | – |
| CC1(C)CC(=O)c2ccc(OCc3cccc(Br)c3)cc2O1 | 16 | 52.2 | – |
| O=C1COc2cc(OCCCc3ccccc3)ccc21 | – | 20500 | Ratio IC50 [11]: 1.9; IC50 [12]: 39300 nM |
| CC1(C)CC(=O)c2ccc(OCc3ccc(Br)cc3)cc2O1 | 21 | 45.4 | – |
| CC1(C)CC(=O)c2ccc(OCc3ccc(F)cc3)cc2O1 | 25 | – | Activity [4]: Non-toxic |
| O=C1COc2cc(OCCc3ccccc3)ccc21 | – | 2130 | Ratio IC50 [11]: 21.8; IC50 [12]: 46400 nM |

More lines, main results first:

| inhibition at 100 µM [2] [%] | IC50 [10] [nM] | SMILES | other results |
| --- | --- | --- | --- |
| 43 | – | O=C1CCOc2cc(OCc3ccc(F)cc3)ccc21 | inhibition (INH) [1]: 42.4%; TDI [3]: Not Active; Activity [4]: Non-toxic; inhibition (INH) [5]: 44.5%; inhibition (INH) [6]: 49.6%; inhibition (INH) [7]: Active; inhibition (INH) [8]: 45.5%; inhibition (INH) [9]: Active |
| 58 | 251 | O=C1CCOc2cc(OCCc3ccccc3)ccc21 | – |
| 27 | 47.3 | N#Cc1ccc(COc2ccc3c(c2)OCCC3=O)cc1 | – |
| 65 | 21400 | O=C1CCOc2cc(OCCCc3ccccc3)ccc21 | – |
| 31 | 55.4 | CC1(C)CC(=O)c2ccc(OCc3cccc(Cl)c3)cc2O1 | – |
| 35 | 58.8 | O=C1CCOc2cc(OCc3ccccc3F)ccc21 | – |
| 18 | 57.4 | O=C1CCOc2cc(OCc3ccccc3)ccc21 | – |
| 35 | 35.3 | O=C1CCOc2cc(OCc3cccc(Cl)c3)ccc21 | – |
| 26 | 52.6 | O=C1CCOc2cc(OCc3cccc(F)c3)ccc21 | Ratio IC50 [11]: > 1900 |
| – | 15200 | O=C1COc2cc(OCc3ccccc3)ccc21 | Ratio IC50 [11]: 2.5; IC50 [12]: 38200 nM |
| 37 | – | O=C1CCOc2cc(OCc3ccc(Cl)cc3)ccc21 | – |
| 19 | 21.6 | O=C1CCOc2cc(OCc3ccc(Br)cc3)ccc21 | – |
| 26 | 91.3 | Cc1ccc(COc2ccc3c(c2)OCCC3=O)cc1 | – |
| 18 | 65.5 | CC1(C)CC(=O)c2ccc(OCc3cccc(F)c3)cc2O1 | – |
| 19 | – | Cc1cccc(COc2ccc3c(c2)OCCC3=O)c1 | – |
| 28 | 30.3 | O=C1CCOc2cc(OCc3cccc(Br)c3)ccc21 | – |
